Measurements published in ChEMBL document CHEMBL4342527, “Discovery of Novel Fungal Lanosterol 14α-Demethylase (CYP51)/Histone Deacetylase Dual Inhibitors to Treat Azole-Resistant Candidiasis” (J Med Chem, 2020).
Values after ≈ are worked out from the molar mass of the structure shown. Active and inactive are the calls of the source. No cut-off for these calls is given here.

Columns and labels:
Candida albicans [1] = assay: Inhibition of yeast to hypha transition in azole resistant Candida albicans 0304103 assessed as down regulation of CPH1 gene expression at 32 ug /ml after 16 hrs by SYBR Green I dye based RT-PCR analysis; type: functional, organism-based
Candida albicans [2] = assay: Inhibition of HDAC in azole-resistant Candida albicans 0304103 assessed as reduction in CDR2 gene expression at 32 ug/ml after 16 hrs by SYBR Green-1 dye based RT-PCR analysis; conditions: 304103
[3] = molecular target: T1, Protein deacetylase HDAC6 (Homo sapiens, UniProt Q9UBN7); assay: Inhibition of HDAC6 (unknown origin) after 30 mins by fluorescence based assay
T1 sequence (Q9UBN7 whole entry): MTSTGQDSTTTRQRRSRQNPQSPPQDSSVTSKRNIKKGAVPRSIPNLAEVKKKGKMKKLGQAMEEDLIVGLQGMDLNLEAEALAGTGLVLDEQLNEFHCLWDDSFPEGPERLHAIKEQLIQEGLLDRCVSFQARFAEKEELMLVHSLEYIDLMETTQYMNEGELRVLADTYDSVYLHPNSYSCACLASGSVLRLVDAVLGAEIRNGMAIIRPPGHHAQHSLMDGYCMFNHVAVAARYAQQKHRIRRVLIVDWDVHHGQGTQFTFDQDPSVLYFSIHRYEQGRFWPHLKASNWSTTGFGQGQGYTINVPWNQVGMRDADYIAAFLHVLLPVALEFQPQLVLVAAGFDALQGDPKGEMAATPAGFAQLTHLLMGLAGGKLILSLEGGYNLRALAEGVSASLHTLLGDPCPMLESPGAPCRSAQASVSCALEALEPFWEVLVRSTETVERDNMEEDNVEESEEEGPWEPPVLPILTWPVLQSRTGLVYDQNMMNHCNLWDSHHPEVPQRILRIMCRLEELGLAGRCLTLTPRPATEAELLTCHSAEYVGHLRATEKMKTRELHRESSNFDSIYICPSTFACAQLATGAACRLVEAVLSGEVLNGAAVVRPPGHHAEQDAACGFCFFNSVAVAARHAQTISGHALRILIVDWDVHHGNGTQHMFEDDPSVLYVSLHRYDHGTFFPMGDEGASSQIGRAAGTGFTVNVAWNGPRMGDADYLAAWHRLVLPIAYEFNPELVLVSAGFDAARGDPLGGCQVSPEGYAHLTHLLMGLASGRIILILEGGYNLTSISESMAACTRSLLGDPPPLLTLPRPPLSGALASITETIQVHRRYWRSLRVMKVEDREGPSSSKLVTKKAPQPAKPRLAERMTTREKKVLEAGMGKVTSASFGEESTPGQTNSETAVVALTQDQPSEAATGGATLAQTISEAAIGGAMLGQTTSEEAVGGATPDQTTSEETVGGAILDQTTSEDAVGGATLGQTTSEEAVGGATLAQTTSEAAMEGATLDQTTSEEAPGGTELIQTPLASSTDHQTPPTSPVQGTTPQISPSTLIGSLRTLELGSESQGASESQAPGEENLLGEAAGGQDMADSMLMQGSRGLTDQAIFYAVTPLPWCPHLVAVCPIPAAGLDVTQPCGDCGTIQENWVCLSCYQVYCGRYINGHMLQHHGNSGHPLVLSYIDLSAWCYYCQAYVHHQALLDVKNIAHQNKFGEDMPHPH

[4] = Selectivity index, ratio of IC50 for human A549 cells to MIC80 for azole-resistant Candida tropicalis 5008; type: toxicity
Candida albicans [5] = assay: Antifungal activity against azole-resistant Candida albicans 0304103 after 48 hrs by spectrophotometry-based serial microdilution method; type: functional; conditions: Candida albicans, 0304103, 48 h
HUVEC = assay: Cytotoxicity against HUVEC assessed as reduction in cell viability after 48 hrs by CCK-8 assay based spectrophotometric analysis; conditions: Homo sapiens
Candida albicans [6] = assay: Inhibition of biofilm formation in azole resistant Candida albicans 0304103 assessed as down regulation of ALS3 gene expression at 32 ug /ml after 16 hrs by SYBR Green I dye based RT-PCR analysis; type: functional, organism-based
[7] = molecular target: T2, Lanosterol 14-alpha demethylase (Candida albicans (strain SC5314 / ATCC MYA-2876) (Yeast), UniProt P10613); assay: Inhibition of CYP51 in azole-resistant Candida albicans 0304103 assessed as eburicol level at 0.5 ug/ml after 24 hrs by GC-MS analysis relative to control; design: scale not given: the % may be the effect or the level left
T2 sequence (P10613 whole entry): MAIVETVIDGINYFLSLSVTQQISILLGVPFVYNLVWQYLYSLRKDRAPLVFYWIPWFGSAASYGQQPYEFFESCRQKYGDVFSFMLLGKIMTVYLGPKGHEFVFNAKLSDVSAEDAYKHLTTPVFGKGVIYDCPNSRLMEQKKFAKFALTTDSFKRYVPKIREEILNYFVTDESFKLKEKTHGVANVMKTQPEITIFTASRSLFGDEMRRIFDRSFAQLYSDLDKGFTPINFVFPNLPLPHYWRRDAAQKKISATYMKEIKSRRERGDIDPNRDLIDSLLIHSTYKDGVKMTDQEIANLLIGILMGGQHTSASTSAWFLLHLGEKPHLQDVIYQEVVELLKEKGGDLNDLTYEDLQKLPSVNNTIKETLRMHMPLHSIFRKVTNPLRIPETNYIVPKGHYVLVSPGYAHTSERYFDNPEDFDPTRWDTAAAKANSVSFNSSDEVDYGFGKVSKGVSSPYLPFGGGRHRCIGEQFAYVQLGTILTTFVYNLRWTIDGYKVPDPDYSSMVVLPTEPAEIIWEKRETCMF

Candida albicans [8] = assay: Antifungal activity against azole-resistant Candida albicans 7781 after 48 hrs by spectrophotometry-based serial microdilution method; type: functional; conditions: Candida albicans, 7781, 48 h
Candida albicans [9] = assay: Inhibition of yeast to hypha transition in azole resistant Candida albicans 0304103 assessed as down regulation of TEC1 gene expression at 32 ug /ml after 16 hrs by SYBR Green I dye based RT-PCR analysis; type: functional, organism-based
[10] = molecular target: T2, Lanosterol 14-alpha demethylase; assay: Inhibition of CYP51 in azole-resistant Candida albicans 0304103 assessed as ergosterol content at 0.5 ug/ml after 24 hrs by GC-MS analysis (reference value: 75.21%); design: scale not given: the % may be the effect or the level left
[11] = Selectivity index, ratio of IC50 for human A549 cells to MIC80 for azole-resistant Candida albicans 4108; type: toxicity
Candida albicans [12] = assay: Antifungal activity against azole-resistant Candida albicans 4108 after 48 hrs by spectrophotometry-based serial microdilution method; type: functional; conditions: Candida albicans, 4108, 48 h
Histone deacetylase = assay: Inhibition of HDAC in HUVEC using Boc-Lys(Ac)-AMC as substrate preincubated for 12 hrs followed by substrate addition and measured after 4 hrs by fluorimetry; type: ADME, cell-based, Homo sapiens
Candida albicans [13] = assay: Inhibition of biofilm formation in azole resistant Candida albicans 0304103 after 24 hrs by XTT assay; type: functional, organism-based
[14] = Selectivity index, ratio of IC50 for HUVEC to MIC80 for azole-resistant Candida albicans 4108; type: toxicity; conditions: human
[15] = Selectivity index, ratio of IC50 for HUVEC to MIC80 for azole-resistant Candida tropicalis 5008; type: toxicity; conditions: human
[16] = Selectivity index, ratio of IC50 for HUVEC to MIC80 for azole-resistant Candida albicans 0304103; type: toxicity; conditions: human
[17] = Selectivity index, ratio of IC50 for human A549 cells to MIC80 for azole-resistant Candida albicans 0304103; type: toxicity
Candida albicans [18] = assay: Antifungal activity against azole-resistant Candida albicans 0304103 infected in ICR mouse assessed as inhibition of filamentation at 20 mg/kg, ip qd for 5 days and measured on day 6 by periodic acid schiff staining-based histological analysis; type: functional, organism-based
[19] = molecular target: T2, Lanosterol 14-alpha demethylase; assay: Inhibition of CYP51 in azole-resistant Candida albicans 0304103 assessed as lanosterol level at 0.5 ug/ml after 24 hrs by GC-MS analysis (reference value: 4.15%); design: scale not given: the % may be the effect or the level left
A549 = assay: Cytotoxicity against human A549 cells assessed as reduction in cell viability after 48 hrs by CCK-8 assay based spectrophotometric analysis; conditions: A549, 48 h
Candida albicans [20] = assay: Antifungal activity against azole-resistant Candida albicans 0304103 infected in ICR mouse assessed as inhibition of filamentation at 20 mg/kg, po qd for 5 days and measured on day 6 by periodic acid schiff staining-based histological analysis; type: functional, organism-based

SMILES | inhibition (Candida albicans [1]) | inhibition (Candida albicans [2]) | IC50 [3] [nM] | selectivity ratio [4] | MIC80 (Candida albicans [5]) [µg/mL] | IC50 (HUVEC) [µM] | inhibition (Candida albicans [6]) | Activity [7] [%] | MIC80 (Candida albicans [8]) [µg/mL] | inhibition (Candida albicans [9]) | Activity [10] [%] | selectivity ratio [11] | MIC80 (Candida albicans [12]) [µg/mL] | IC50 (Histone deacetylase) [µM] | inhibition (Candida albicans [13]) | selectivity ratio [14] | selectivity ratio [15] | selectivity ratio [16] | selectivity ratio [17] | inhibition (Candida albicans [18]) | other results
CN(Cc1ccc(OCCCOc2ccc(CC(=O)NO)cc2)cc1)CC(O)(Cn1cncn1)c1ccc(F)cc1F (racemic) | Active | Active | 600 | 2 to 16 | 0.25 (≈ 0.43 µM) | 6.7 to 25.4 | Active | 65.4 | 0.5 (≈ 0.86 µM) | Active | 18.44 | 2 to 16 | 0.5 (≈ 0.86 µM) | 2.7 | Dose-dependent effect | 2 to 16 | 2 to 16 | 2 to 16 | 2 to 16 | Active | Activity [19]: 8.57%; IC50 (A549): 6.7 to 25.4 µM; inhibition (Candida albicans [20]): Active
CN(Cc1ccc(-n2cnn(CCCCc3ccc(C(=O)NO)cc3)c2=O)cc1)CC(O)(Cn1cncn1)c1ccc(F)cc1F (racemic) | Active | Active | 120 | 2 to 16 | 2 (≈ 3.16 µM) | 6.7 to 25.4 | Active | 13.22 | 2 (≈ 3.16 µM) | Active | 61.48 | 2 to 16 | 8 (≈ 12.6 µM) | 6.8 | Dose-dependent effect | 2 to 16 | 2 to 16 | 2 to 16 | 2 to 16 | Active | Activity [19]: 25.29%; IC50 (A549): 6.7 to 25.4 µM; inhibition (Candida albicans [20]): Active
